Experiment [1] concerns the target T1, AhR (Homo sapiens, UniProt P35869).
T1 construct: host or cells: HepG2
T1 sequence (P35869 11-848): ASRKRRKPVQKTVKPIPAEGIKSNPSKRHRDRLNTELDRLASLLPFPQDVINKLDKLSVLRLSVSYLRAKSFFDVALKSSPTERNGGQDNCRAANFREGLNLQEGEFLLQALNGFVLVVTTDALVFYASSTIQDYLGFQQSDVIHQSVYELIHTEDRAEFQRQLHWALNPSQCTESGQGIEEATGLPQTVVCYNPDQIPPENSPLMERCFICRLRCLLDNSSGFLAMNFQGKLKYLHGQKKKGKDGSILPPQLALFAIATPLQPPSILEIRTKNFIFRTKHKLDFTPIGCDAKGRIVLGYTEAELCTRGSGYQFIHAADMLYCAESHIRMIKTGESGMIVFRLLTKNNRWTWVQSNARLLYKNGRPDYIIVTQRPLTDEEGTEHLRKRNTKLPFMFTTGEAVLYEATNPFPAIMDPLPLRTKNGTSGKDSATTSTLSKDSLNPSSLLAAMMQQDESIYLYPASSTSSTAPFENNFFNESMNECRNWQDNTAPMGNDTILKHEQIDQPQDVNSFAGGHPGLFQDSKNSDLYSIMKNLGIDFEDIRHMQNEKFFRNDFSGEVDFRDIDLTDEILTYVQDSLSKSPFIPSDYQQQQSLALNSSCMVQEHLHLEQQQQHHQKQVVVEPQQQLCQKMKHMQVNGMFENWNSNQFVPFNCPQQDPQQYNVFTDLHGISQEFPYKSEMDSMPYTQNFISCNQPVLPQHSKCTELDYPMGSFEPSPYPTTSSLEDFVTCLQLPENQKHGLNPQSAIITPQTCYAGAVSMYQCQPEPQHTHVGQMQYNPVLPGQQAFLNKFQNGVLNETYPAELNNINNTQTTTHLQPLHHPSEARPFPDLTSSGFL
The experiment is described as follows: In vitro assay 1: XRE-luciferase reporter assay, antagonism in human cell line (HepG2). Type of experiment: cell-based. The gist of the method: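 HepG2 cells carrying XRE-firefly luciferase (transient or stable) plus constitutive Nano-Luc control, stimulated 6 h with kynurenine (50 or 200 μM) with or without compound. Firefly/Nano-Luc ratio normalized to kynurenine-alone (maximum) and vehicle (minimum); IC50 by four-parameter nonlinear regression.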

Experiment [2] concerns the target T1, AhR. The experiment is described as follows: In vitro assay 3: XRE-luciferase reporter assay, agonism in human cell line (HepG2). The format is cell-based. The conditions noted are these: HepG2 XRE-Luc, tryptophan free medium, test compound alone, 6 hours. An excerpt: In Vitro XRE-Luciferase Reporter Assay (In Vitro Assay 1, 2, 3)
AhR activation leads the induction of target gene expression such as CYP1A1 and CYP1B1 by AhR binding to AhR-responsive DNA elements also known as xenobiotics responsive elements (XRE). The assay for measuring AhR activity herein is the luciferase assay using cell lines transfected with luciferase reporter plasmid containing XREs at the upstream of the reporter gene. Cells transfected with XRE-luciferase reporter (XRE-Luc) plasmid drive luciferase activity reflecting activation and inhibition of AhR in the cells. In addition to transfection with XRE-reporter vector, cells were co-transfected with Nano-luciferase reporter gene construct (Nano-Luc) containing constitutively active promoter as internal control. Kynurenine (an endogenous AhR agonist) was used to stimulate cells to test antagonistic properties of the compounds. The half-maximal inhibitory concentration (IC50) or half-maximal effective concentration (EC50) value was calculated using nonlinear regression (four parameters) with Prism8.0 software (GraphPad).
In Vitro Assay 3: Agonism in Human Cell Line
HepG2 (human hepatoma cell line) cells co-transfected with XRE-Luc and Nano-Luc plasmids were plated in tryptophan free medium containing 1% of dialyzed fetal bovine serum and incubated overnight at 37° C. in a CO2 incubator. After 24 hours, cells were treated for 6 hours with test compounds or not. Firefly luciferase and Nano-luciferase activity was measured using Nano-glo Luciferase kit (Promega) and relative luciferase activity (Firefly/Nano-Luc) was used to calculate EC50 values. As a positive control, cells were incubated with TCDD. (EC50 Values are grouped as A, B, C and D, whereby A: EC50<0.1 μM; B: 0.1<EC50<1.0 μM; C: 1.0<EC50<10 μM; D: EC50>10 μM)

[3] abbreviates: HepG2 XRE-luciferase, cells treated with kynurenine 200 μM (no *), 6 hours, read-out: Assay 1: AhR-Luc Human Antagonism (IC50).
The mark [4] stands for this setting: read-out: Assay 3: AhR-Luc Human Agonism (EC50).
The mark [5] stands for this setting: read-out: Assay 3: AhR-Luc Human Agonism (EC50, nM), class in brackets.
Setting [6] is: HepG2 XRE-luciferase, cells treated with kynurenine 50 μM (*), 6 hours, read-out: Assay 1: AhR-Luc Human Antagonism (IC50).

Read-outs that look alike come from different tables or passages of the source.

In general, IC50 refers to the concentration needed to halve the response being measured. A word on the EC50: it is the concentration giving half of the maximal effect. For `O=c1c2cc(-c3ccc(Cl)cc3)nc(-c3cccnc3)c2ncn1CC(O)CO` (stereo not drawn) [Example 67, 6-(4-chlorophenyl)-3-(2,3-dihydroxypropyl)-8-(pyridin-3-yl)pyrido[3,4-d]pyrimidin-4(3H)-one], the IC50 in experiment [1] (setting [3]) was less than 10 nM. In addition, the EC50 was more than 30000 nM in experiment [2] (setting [4]) and more than 10000 nM in experiment [2] (setting [5]).

On to `CC(CO)n1cnc2c(-c3cccnc3)nc(-c3ccc(OC(F)(F)F)cc3)cc2c1=O` (stereo not drawn) [Example 49, 3-(1-hydroxypropan-2-yl)-8-(pyridin-3-yl)-6-(4-(trifluoromethoxy)phenyl)pyrido[3,4-d]pyrimidin-4(3H)-one], for which, in experiment [1] (setting [6]), the IC50 is less than 10 nM. Besides, the concentration for a half-maximal effect (EC50) in experiment [2] (setting [4]) is 9660 nM.

Regarding `CC(CO)N1CNc2c(cc(-c3ccc(C(F)(F)F)cc3)nc2-c2cnn(C)c2)C1=O` (stereo not drawn) [Example 59, 3-(1-hydroxypropan-2-yl)-8-(1-methyl-1H-pyrazol-4-yl)-6-(4-(trifluoromethyl)phenyl)-2,3-dihydropyrido[3,4-d]pyrimidin-4(1H)-one], the IC50 in experiment [1] (setting [6]) is less than 10 nM. Besides, the EC50 in experiment [2] (setting [4]) is more than 30000 nM; in experiment [2] (setting [5]), more than 10000 nM.

With `CC(O)Cn1cnc2c(-c3cnn(C)c3)nc(-c3ccc(C(F)(F)F)nc3)cc2c1=O` (stereo not drawn) [Example 14, 3-(2-hydroxypropyl)-8-(1-methyl-1H-pyrazol-4-yl)-6-(6-(trifluoromethyl)pyridin-3-yl)pyrido[3,4-d]pyrimidin-4(3H)-one], the IC50 in experiment [1] (setting [6]) is less than 10 nM. Further, the EC50 in experiment [2] (setting [4]) was more than 30000 nM; in experiment [2] (setting [5]), more than 10000 nM.

Take `O=c1c2cc(-c3ccc(Cl)nc3)nc(-c3cccnc3)c2ncn1[C@@H]1CC[C@H](O)C1` [Example 71, 6-(6-chloropyridin-3-yl)-3-((1R,3S)-3-hydroxycyclopentyl)-8-(pyridin-3-yl)pyrido[3,4-d]pyrimidin-4(3H)-one]: the IC50 in experiment [1] (setting [3]) was in the range of 10 to 100 nM. In addition, the figures for the concentration giving a half-maximal response (EC50) in experiment [2] (setting [4]) and in experiment [2] (setting [5]) were more than 30000 nM and more than 10000 nM, respectively.

For the compound `CC(CO)n1cnc2c(-c3cnn(C)c3)nc(-c3ccc(Cl)cc3)cc2c1=O` (stereo not drawn) [Example 48, 6-(4-chlorophenyl)-3-(1-hydroxypropan-2-yl)-8-(1-methyl-1H-pyrazol-4-yl)pyrido[3,4-d]pyrimidin-4(3H)-one], in experiment [1] (setting [6]), the IC50 is less than 10 nM. Besides, the EC50 is more than 30000 nM in experiment [2] (setting [4]) and more than 10000 nM in experiment [2] (setting [5]).

Regarding `O=c1c2cc(-c3ccc(C(F)(F)F)cc3)nc(-c3cccnc3)c2ncn1[C@H]1CC[C@H](O)CC1` [Example 57, 3-((1r,4r)-4-hydroxycyclohexyl)-8-(pyridin-3-yl)-6-(4-(trifluoromethyl)phenyl)pyrido[3,4-d]pyrimidin-4(3H)-one], in experiment [1] (setting [6]), the IC50 is less than 10 nM. Further, the EC50 in experiment [2] (setting [4]) stood at 4480 nM.

As for `CC(O)Cn1cnc2c(-c3cnn(C)c3)nc(-c3ccc(C(F)(F)F)cc3)cc2c1=O` (stereo not drawn) [Example 12, 3-(2-hydroxypropyl)-8-(1-methyl-1H-pyrazol-4-yl)-6-(4-(trifluoromethyl)phenyl)pyrido[3,4-d]pyrimidin-4(3H)-one], the IC50 in experiment [1] (setting [6]) is less than 10 nM.

As for `CC(O)Cn1cnc2c(-c3cnn(C)c3)nc(-c3cnn(C)c3)cc2c1=O` (stereo not drawn) [Example 11, 3-(2-hydroxypropyl)-6,8-bis(1-methyl-1H-pyrazol-4-yl)pyrido[3,4-d]pyrimidin-4(3H)-one], the half-inhibitory concentration (IC50) in experiment [1] (setting [6]) fell in the range of 100 to 1000 nM.

Regarding `Cn1cc(-c2nc(-c3ccc(Cl)cc3)cc3c(=O)n([C@@H]4CC[C@H](O)C4)cnc23)cn1` [Example 30, 6-(4-chlorophenyl)-3-((1R,3S)-3-hydroxycyclopentyl)-8-(1-methyl-1H-pyrazol-4-yl)pyrido[3,4-d]pyrimidin-4(3H)-one], in experiment [1] (setting [3]), the IC50 was 10 to 100 nM.

Consider `CC(C)(O)Cn1cnc2c(-c3cccnc3)nc(-c3ccc(C(F)(F)F)nc3)cc2c1=O` [Example 40, 3-(2-hydroxy-2-methylpropyl)-8-(pyridin-3-yl)-6-(6-(trifluoromethyl)pyridin-3-yl)pyrido[3,4-d]pyrimidin-4(3H)-one], for which the IC50 in experiment [1] (setting [3]) was less than 10 nM.

`O=c1c2cc(-c3ccc(N4CCOCC4)cc3)nc(-c3cccnc3)c2ncn1C1CCS(=O)(=O)CC1` [Example 78, 3-(1,1-dioxidotetrahydro-2H-thiopyran-4-yl)-6-(4-morpholinophenyl)-8-(pyridin-3-yl)pyrido[3,4-d]pyrimidin-4(3H)-one]: in experiment [1] (setting [3]), the IC50 is less than 10 nM.

Consider `O=c1c2cc(-c3ccc(N4CCOCC4)cc3)nc(-c3cccnc3)c2ncn1C(CO)CO` [Example 80, 3-(1,3-dihydroxypropan-2-yl)-6-(4-morpholinophenyl)-8-(pyridin-3-yl)pyrido[3,4-d]pyrimidin-4(3H)-one], for which, in experiment [1] (setting [3]), the IC50 was less than 10 nM.

For `O=c1c2cc(-c3ccc(Cl)cc3)nc(-c3cccnc3)c2ncn1C1CCC(O)CC1` (stereo not drawn) [Example 58, 6-(4-chlorophenyl)-3-((1s,4s)-4-hydroxycyclohexyl)-8-(pyridin-3-yl)pyrido[3,4-d]pyrimidin-4(3H)-one], the IC50 in experiment [1] (setting [3]) was less than 10 nM.

Regarding `O=c1c2cc(-c3ccc(C(F)(F)F)cc3)nc(-c3cccnc3)c2ncn1[C@H]1CC[C@@H](O)C1` [Example 33, 3-((1S,3R)-3-hydroxycyclopentyl)-8-(pyridin-3-yl)-6-(4-(trifluoromethyl)phenyl)pyrido[3,4-d]pyrimidin-4(3H)-one], the IC50 in experiment [1] (setting [3]) was less than 10 nM.

As for `O=c1c2cc(-c3ccc(Cl)cc3)nc(-c3cccnc3)c2ncn1[C@@H]1CCCC[C@@H]1O` [Example 19], the IC50 in experiment [1] (setting [3]) is less than 10 nM.

For `Cn1cc(-c2nc(-c3ccc(C(F)(F)F)cc3)cc3c(=O)n([C@@H]4CCCC[C@@H]4O)cnc23)cn1` [Example 18, 3-((1R,2S)-2-hydroxycyclohexyl)-8-(1-methyl-1H-pyrazol-4-yl)-6-(4-(trifluoromethyl)phenyl)pyrido[3,4-d]pyrimidin-4(3H)-one], the IC50 in experiment [1] (setting [3]) is less than 10 nM.

Take `CCOP(=O)(OCC)OCC(C)n1cnc2c(-c3cccnc3)nc(-c3ccc(Cl)cc3)cc2c1=O` (stereo not drawn) [Example 47, 2-(6-(4-chlorophenyl)-4-oxo-8-(pyridin-3-yl)pyrido[3,4-d]pyrimidin-3(4H)-yl)propyl diethyl phosphate]: the IC50 in experiment [1] lay in the range of 10 to 100 nM.

Consider `Cn1cc(-c2nc(-c3ccc(C(F)(F)F)cc3)cc3c(=O)n([C@H]4CC[C@@H](O)C4)cnc23)cn1` [Example 35, 3-((1S,3R)-3-hydroxycyclopentyl)-8-(1-methyl-1H-pyrazol-4-yl)-6-(4-(trifluoromethyl)phenyl)pyrido[3,4-d]pyrimidin-4(3H)-one], for which, in experiment [1] (setting [3]), the IC50 is less than 10 nM.

As to `CC(CO)n1cnc2c(-c3ccc(C(F)(F)F)cc3)nc(-c3ccc(C(F)(F)F)cc3)cc2c1=O` (stereo not drawn) [Example 6, 3-(1-hydroxypropan-2-yl)-6,8-bis(4-(trifluoromethyl)phenyl)pyrido[3,4-d]pyrimidin-4(3H)-one], the concentration for half-maximal inhibition (IC50) in experiment [1] (setting [6]) lay in the range of 100 to 1000 nM.

For the compound `CN1CCN(c2ccc(-c3cc4c(=O)n(CC(O)CO)cnc4c(-c4cccnc4)n3)cc2)CC1` (stereo not drawn) [Example 68, 3-(2,3-dihydroxypropyl)-6-(4-(4-methylpiperazin-1-yl)phenyl)-8-(pyridin-3-yl)pyrido[3,4-d]pyrimidin-4(3H)-one], the IC50 in experiment [1] (setting [3]) was more than 1000 nM.

The values are drawn from patent US20230147257A1 (DONG-A ST CO., LTD., priority 2020, published 2023).
